From PubChem BioAssay AID1963861 (Molecular Pharmacology Branch, DTP, NCI, 2024)

Test system: 885724-159-R-J1-PDC KRAS PDC multicell spheroid viability
Experiment: Anticancer human tumor 885724-159-R-J1-PDC patient-derived pancreatic adenocarcinoma cell line growth inhibition [KRAS2]
Conditions: for IC50: curve of first compound; for viability, T/C: stronger effect = lower value
Outline: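 Combination screen of spheroid viability in tumor-cell co-cultures with endothelial (HUVEC) and mesenchymal stem cell stroma. Each agent was tested in half-log dilutions, topping at clinical Cmax or at 10 microM without a known Cmax.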

[1] = second compound 0.1 µM, first compound 0.01 µM
[2] = second compound 0.1 µM, first compound 0.0316 µM
[3] = second compound 0.1 µM, first compound 0.1 µM
[4] = second compound 0.1 µM, first compound 0.316 µM
[5] = second compound 0.1 µM, first compound 1 µM
[6] = second compound 0.1 µM, first compound 3.16 µM
[7] = second compound 0.316 µM, first compound 0.01 µM
[8] = second compound 0.316 µM, first compound 0.0316 µM
[9] = second compound 0.316 µM, first compound 0.1 µM
[10] = second compound 0.316 µM, first compound 0.316 µM
[11] = second compound 0.316 µM, first compound 1 µM
[12] = second compound 0.316 µM, first compound 3.16 µM
[13] = second compound 1 µM, first compound 0.01 µM
[14] = second compound 1 µM, first compound 0.0316 µM
[15] = second compound 1 µM, first compound 0.1 µM
[16] = second compound 1 µM, first compound 0.316 µM
[17] = second compound 1 µM, first compound 1 µM
[18] = second compound 1 µM, first compound 3.16 µM
[19] = second compound 3.16 µM, first compound 0.01 µM
[20] = second compound 3.16 µM, first compound 0.0316 µM
[21] = second compound 3.16 µM, first compound 0.1 µM
[22] = second compound 3.16 µM, first compound 0.316 µM
[23] = second compound 3.16 µM, first compound 1 µM
[24] = second compound 3.16 µM, first compound 3.16 µM
[25] = second compound 10 µM, first compound 0.01 µM
[26] = second compound 10 µM, first compound 0.0316 µM
[27] = second compound 10 µM, first compound 0.1 µM
[28] = second compound 10 µM, first compound 0.316 µM
[29] = second compound 10 µM, first compound 1 µM
[30] = second compound 10 µM, first compound 3.16 µM
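Further: spheroids exposed to agents for 7 days before readout.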

Row | SMILES | IC50 (second compound 0.1 µM) | IC50 (second compound 0.316 µM) | IC50 (second compound 1 µM) | IC50 (second compound 3.16 µM) | viability, T/C [2] | viability, T/C [3] | viability, T/C [4] | viability, T/C [5] | viability, T/C [8] | viability, T/C [9] | viability, T/C [10] | viability, T/C [11] | viability, T/C [14] | viability, T/C [15] | viability, T/C [16] | viability, T/C [17] | viability, T/C [20] | viability, T/C [21] | viability, T/C [22] | viability, T/C [23] | other results
1 | CC1COCCN1c1cc(-c2ccnn2C)c2ccnc(-c3ccn[nH]3)c2n1 (stereo not given) + C=CC(=O)N1CCN(c2nc(=O)n(-c3c(C)ccnc3C(C)C)c3nc(-c4c(O)cccc4F)c(F)cc23)C(C)C1 | > 3160 nM | 2780 nM | 2410 nM | > 3160 nM | 92.4% | 69.2% | 56.2% | 49.2% | 84.6% | 68.2% | 58.3% | 49% | 83.8% | 66.9% | 60.2% | 47.8% | 92.1% | 66.2% | 58.9% | 49.4% | IC50 (second compound 10 µM): 222 nM; viability, T/C [1]: 111%; viability, T/C [6]: 55.2%; viability, T/C [7]: 104%; viability, T/C [12]: 51.5%; viability, T/C [13]: 106%; viability, T/C [18]: 51.4%; viability, T/C [19]: 93.7%; viability, T/C [24]: 54.1%; viability, T/C [25]: 71.7%; viability, T/C [26]: 65.7%; viability, T/C [27]: 55.9%; viability, T/C [28]: 46.7%; viability, T/C [29]: 45.6%; viability, T/C [30]: 42.7%
2 | CCN1CCN(Cc2ccc(Nc3ncc(F)c(-c4cc(F)c5nc(C)n(C(C)C)c5c4)n3)nc2)CC1 + C=CC(=O)N1CCN(c2nc(=O)n(-c3c(C)ccnc3C(C)C)c3nc(-c4c(O)cccc4F)c(F)cc23)C(C)C1 | > 1000 nM | > 1000 nM | > 1000 nM | > 1000 nM | 99.3% | 92.6% | 87.2% | 92.6% | 102% | 95.1% | 101% | 107% | 106% | 101% | 106% | 104% | 104% | 101% | 110% | 114% | IC50 (second compound 10 µM): > 1000 nM; viability, T/C (second compound 0.1 µM, first compound 0.00316 µM): 116%; viability, T/C [1]: 98.6%; viability, T/C (second compound 0.316 µM, first compound 0.00316 µM): 114%; viability, T/C [7]: 104%; viability, T/C (second compound 1 µM, first compound 0.00316 µM): 112%; viability, T/C [13]: 116%; viability, T/C (second compound 3.16 µM, first compound 0.00316 µM): 114%; viability, T/C [19]: 122%; viability, T/C (second compound 10 µM, first compound 0.00316 µM): 72.6%; viability, T/C [25]: 84.2%; viability, T/C [26]: 84.8%; viability, T/C [27]: 85%; viability, T/C [28]: 88.8%; viability, T/C [29]: 80.2%
3 | CCNC(=O)CC1N=C(c2ccc(Cl)cc2)c2cc(OC)ccc2-n2c(C)nnc21 (stereo not given) + C=CC(=O)N1CCN(c2nc(=O)n(-c3c(C)ccnc3C(C)C)c3nc(-c4c(O)cccc4F)c(F)cc23)C(C)C1 | > 10000 nM | 6680 nM | > 10000 nM | 2220 nM | 109% | 95.6% | 86.3% | 65.6% | 105% | 94.4% | 77.6% | 61.3% | 116% | 89.6% | 66.3% | 63.9% | 105% | 90.5% | 66.3% | 51.8% | IC50 (second compound 10 µM): 352 nM; viability, T/C [6]: 57%; viability, T/C (second compound 0.1 µM, first compound 10 µM): 52.7%; viability, T/C [12]: 55.3%; viability, T/C (second compound 0.316 µM, first compound 10 µM): 47.2%; viability, T/C [18]: 51.1%; viability, T/C (second compound 1 µM, first compound 10 µM): 51.8%; viability, T/C [24]: 51.8%; viability, T/C (second compound 3.16 µM, first compound 10 µM): 45.9%; viability, T/C [26]: 78%; viability, T/C [27]: 66%; viability, T/C [28]: 48.2%; viability, T/C [29]: 43.1%; viability, T/C [30]: 39.2%; viability, T/C (second compound 10 µM, first compound 10 µM): 33.6%
4 | CC(=O)OC12COC1CC(O)C1(C)C(=O)C(O)C3=C(C)C(OC(=O)C(O)C(NC(=O)OC(C)(C)C)c4ccccc4)CC(O)(C(OC(=O)c4ccccc4)C21)C3(C)C (stereo not given) + C=CC(=O)N1CCN(c2nc(OCC3CCCN3C)nc3c2CCN(c2cccc4cccc(C)c24)C3)CC1CC#N | > 3160 nM | > 3160 nM | > 3160 nM | > 3160 nM | 94.9% | 97% | 106% | 116% | 97.5% | 92.8% | 101% | 115% | 86.9% | 91.8% | 96.7% | 99.2% | 100% | 99.6% | 105% | 111% | IC50 (second compound 0.0316 µM): > 3160 nM; viability, T/C (second compound 0.0316 µM, first compound 0.01 µM): 86.9%; viability, T/C (second compound 0.0316 µM, first compound 0.0316 µM): 95.8%; viability, T/C (second compound 0.0316 µM, first compound 0.1 µM): 102%; viability, T/C (second compound 0.0316 µM, first compound 0.316 µM): 101%; viability, T/C (second compound 0.0316 µM, first compound 1 µM): 110%; viability, T/C (second compound 0.0316 µM, first compound 3.16 µM): 109%; viability, T/C [1]: 87.5%; viability, T/C [6]: 115%; viability, T/C [7]: 85.5%; viability, T/C [12]: 103%; viability, T/C [13]: 82.6%; viability, T/C [18]: 96.7%; viability, T/C [19]: 87.2%; viability, T/C [24]: 115%
